Results from article PMC7522794, “Synthesis and evaluation of novel 2,4-disubstituted arylthiazoles against T. brucei” (RSC Medicinal Chemistry, 2019).
Counter-ions that a name gives are not always drawn.

Assays:
[1] = test system: Bloodstream form T. brucei (strain 427); assay: Trypanocidal activity against bloodstream form T. brucei (Alamar Blue growth inhibition); type: cell-based, Trypanosoma brucei; conditions: 48 hours + overnight Alamar Blue; for IC50: concentration that inhibits growth by 50%; for IC90: concentration that inhibits growth by 90%
Method: Bloodstream form T. brucei (strain 427) were cultured at 37 °C in modified Iscove's medium. Trypanocidal activity was assessed by growing parasites in microtiter plates in the presence of various drug concentrations. […] The plates were incubated for 48 hours at 37 °C and 20 μL Alamar Blue was then added to each well. After an additional overnight incubation, the fluorescence was determined. Inhibition of growth was calculated by comparison with control values and IC50 and IC90 values were determined in triplicate using linear regression analysis.

[2] = Cytotoxic activity against rat skeletal myoblast L6 cells (Alamar Blue); type: cell-based; conditions: rat, L6 cells (rat skeletal muscle line); cytotoxicity, 6 days incubation + 8 hours Alamar Blue
Method: (§1) Cytotoxicity against mammalian cells was assessed using microtitre plates. Briefly, L6 cells (a rat skeletal muscle line) were seeded at 1 × 10^4 mL^–1 in 200 μL of growth medium containing 7 different compound concentrations in a range previously established to encompass both the IC50 and IC90 values. The plates were incubated for 6 days at 37 °C and 20 μL Alamar Blue (Biosource UK Ltd) was then added to each well. After an additional 8 hours incubation, the fluorescence was determined using a FLUOstar Omega fluorescent plate reader (BMG Labtech). Inhibition of growth was calculated by comparison with control values and IC50 and IC90 values were determined in triplicate using linear regression analysis.

L6 cells = assay: as above; type: cell-based; conditions: ratio of IC50 values obtained with L6 cells and T. brucei
Method: as §1

melting point	Molecule	IC50 ([1]; Trypanosoma brucei)	also measured
147 to 149 °C	CNCCc1csc(-c2ccc(C34CC5CC(CC(C5)C3)C4)cc2)n1 (as salt: fumarate) [Compound 2b, 2-{2-[4-(1-Tricyclo[3.3.1.1^3,7]decyl)phenyl]thiazol-4-yl}-N-methylethan-1-amine]		
302 °C (dec.)	CN(C)CCc1csc(-c2ccc(C34CC5CC(CC(C5)C3)C4)cc2)n1 (as salt: fumarate) [Compound 2c, 2-{2-[4-(1-Tricyclo[3.3.1.1^3,7]decyl)phenyl]thiazol-4-yl}-N,N-dimethylethan-1-amine]		
164 to 166 °C	CC(=O)NCCc1csc(-c2ccc(C34CC5CC(CC(C5)C3)C4)cc2)n1 (as salt: fumarate) [Compound 2d, N-{2-[2-(4-(1-Tricyclo[3.3.1.1^3,7]decyl)phenyl)thiazol-4-yl]ethyl}acetamide]		
225 °C (dec.)	NCCc1csc(-c2ccc(C34CC5CC(CC(C5)C3)C4)cc2)n1 (as salt: hydrochloride) [Compound 2a, 2-{2-[4-(1-Tricyclo[3.3.1.1^3,7]decyl)phenyl]thiazol-4-yl}ethan-1-amine]		
159 to 160 °C	N#CCc1csc(-c2ccc(C34CC5CC(CC(C5)C3)C4)cc2)n1 [Compound 2e, 2-{2-[4-(1-Tricyclo[3.3.1.1^3,7]decyl)phenyl]thiazol-4-yl}acetonitrile]	> 20 µM	
169 to 170 °C	N#CSCc1csc(-c2ccc(C34CC5CC(CC(C5)C3)C4)cc2)n1 [Compound 2f, 2-[4-(1-Tricyclo[3.3.1.1^3,7]decyl)phenyl]-4-(thiocyanatemethyl)thiazole]	~10 µM	
93 to 94 °C	OCCc1csc(-c2ccc(C34CC5CC(CC(C5)C3)C4)cc2)n1 [Compound 2g, 2-{2-[4-(1-Tricyclo[3.3.1.1^3,7]decyl)phenyl]thiazol-4-yl}ethan-1-ol]	~10 µM	
172 °C (dec.)	Br.NCc1nc(-c2ccc(C34CC5CC(CC(C5)C3)C4)cc2)cs1 [Compound 3b, 2-{4-[4-(1-Tricyclo[3.3.1.1^3,7]decyl)phenyl]thiazol-2-yl}methanamine difumarate]	9.76 ± 0.77 µM	IC50 [2]: 12.6 ± 0.9 µM; IC90 ([1]; Trypanosoma brucei): 12.8 ± 0.2 µM
135 to 136 °C	O=C(NCCc1csc(-c2ccccc2)n1)C12CC3CC(CC(C3)C1)C2 [Compound 4a, N-(2-(2-Phenylthiazol-4-yl)ethyl)(1-tricyclo[3.3.1.1^3,7]decane)carboxamide]	12.2 ± 0.8 µM	IC90 ([1]; Trypanosoma brucei): 18.7 ± 0.4 µM
107 to 108 °C	O=C(NCCc1nc(-c2ccccc2)cs1)C12CC3CC(CC(C3)C1)C2 [Compound 4c, N-[2-(4-Phenylthiazol-2-yl)ethyl](1-tricyclo[3.3.1.1^3,7]decane)carboxamide]	9.82 ± 0.22 µM	IC90 ([1]; Trypanosoma brucei): 13.1 ± 0.2 µM

The remaining lines, values behind:

Molecule	melting point	IC50 ([1]; Trypanosoma brucei)	also measured
1-{2-[4-(1-Tricyclo[3.3.1.1^3,7]decyl)phenyl]thiazol-4-yl}guanidine [Compound 3e]			IC50 [1]: ~10 µM
CC(=O)NCCc1csc(-c2ccc(F)c(C34CC5CC(CC(C5)C3)C4)c2)n1 (as salt: fumarate) [Compound 1d, N-{2-[2-(3-(1-Tricyclo[3.3.1.1^3,7]decyl)-4-fluorophenyl]thiazol-4-yl]ethyl}acetamide]	143 to 145 °C		
CCCC(=O)NCCc1csc(-c2ccc(F)c(C34CC5CC(CC(C5)C3)C4)c2)n1 (as salt: fumarate) [Compound 1e, N-{2-[2-(3-(1-Tricyclo[3.3.1.1^3,7]decyl)-4-fluorophenyl)thiazol-4-yl]ethyl}butylamide]	291 to 293 °C		
O=C(NCCc1csc(-c2ccc(F)c(C34CC5CC(CC(C5)C3)C4)c2)n1)c1ccccc1 (as salt: fumarate) [Compound 1f, N-{2-[2-(3-(1-Tricyclo[3.3.1.1^3,7]decyl)-4-fluorophenyl)thiazol-4-yl]ethyl}benzamide]	305 °C (dec.)		
O=C(NCCc1csc(-c2ccc(F)c(C34CC5CC(CC(C5)C3)C4)c2)n1)c1ccc(F)cc1 (as salt: fumarate) [Compound 1g, N-{2-[2-(3-(1-Tricyclo[3.3.1.1^3,7]decyl)-4-fluorophenyl)thiazol-4-yl]ethyl}-4-fluorobenzamide]	226 to 227 °C		
O=C(NCCc1csc(-c2ccc(F)c(C34CC5CC(CC(C5)C3)C4)c2)n1)N1CCCC1 (as salt: fumarate) [Compound 1i, N-(2-(2-(3-(1-Tricyclo[3.3.1.1^3,7]decyl)-4-fluorophenyl)thiazol-4-yl)ethyl)pyrrolidin-1-yl-carboxamide]	301 °C (dec.)		
NCCc1csc(-c2ccc(F)c(C34CC5CC(CC(C5)C3)C4)c2)n1 (as salt: hydrochloride) [Compound 1a, 2-{2-[3-(1-Tricyclo[3.3.1.1^3,7]decyl)-4-fluorophenyl]thiazol-4-yl}ethan-1-amine]	246 to 248 °C		
CNCCc1csc(-c2ccc(F)c(C34CC5CC(CC(C5)C3)C4)c2)n1 (as salt: hydrochloride) [Compound 1b, 2-{2-[3-(1-Tricyclo[3.3.1.1^3,7]decyl)-4-fluorophenyl]thiazol-4-yl}-N-methylethan-1-amine]	221 to 223 °C		
CN(C)CCc1csc(-c2ccc(F)c(C34CC5CC(CC(C5)C3)C4)c2)n1 (as salt: hydrochloride) [Compound 1c, 2-{2-[3-(1-Tricyclo[3.3.1.1^3,7]decyl)-4-fluorophenyl]thiazol-4-yl}-N,N-dimethylethyl-1-amine]	280 to 282 °C		
NCCc1csc(-c2ccc(F)c(C34CC5CC(CC(C5)C3)C4)c2)n1 [Compound 1a, 2-{2-[3-(1-Tricyclo[3.3.1.1^3,7]decyl)-4-fluorophenyl]thiazol-4-yl}ethan-1-amine]		0.42 ± 0.01 µM	IC50 [2]: 1.05 ± 0.23 µM; S.I. (selectivity index) (L6 cells): 2.5; IC90 ([1]; Trypanosoma brucei): 0.56 ± 0.01 µM
CNCCc1csc(-c2ccc(F)c(C34CC5CC(CC(C5)C3)C4)c2)n1 [Compound 1b, 2-{2-[3-(1-Tricyclo[3.3.1.1^3,7]decyl)-4-fluorophenyl]thiazol-4-yl}-N-methylethan-1-amine]		0.9 ± 0.01 µM	IC50 [2]: 2.01 ± 0.32 µM; S.I. (selectivity index) (L6 cells): 2.2; IC90 ([1]; Trypanosoma brucei): 1.1 ± 0.01 µM
CN(C)CCc1csc(-c2ccc(F)c(C34CC5CC(CC(C5)C3)C4)c2)n1 [Compound 1c, 2-{2-[3-(1-Tricyclo[3.3.1.1^3,7]decyl)-4-fluorophenyl]thiazol-4-yl}-N,N-dimethylethyl-1-amine]		0.79 ± 0.02 µM	IC50 [2]: 1.53 ± 0.09 µM; S.I. (selectivity index) (L6 cells): 1.9; IC90 ([1]; Trypanosoma brucei): 1.03 ± 0.01 µM
CC(=O)NCCc1csc(-c2ccc(F)c(C34CC5CC(CC(C5)C3)C4)c2)n1 [Compound 1d, N-{2-[2-(3-(1-Tricyclo[3.3.1.1^3,7]decyl)-4-fluorophenyl]thiazol-4-yl]ethyl}acetamide]		15.3 ± 0.2 µM	IC90 ([1]; Trypanosoma brucei): 18.1 ± 0.2 µM
CCCC(=O)NCCc1csc(-c2ccc(F)c(C34CC5CC(CC(C5)C3)C4)c2)n1 [Compound 1e, N-{2-[2-(3-(1-Tricyclo[3.3.1.1^3,7]decyl)-4-fluorophenyl)thiazol-4-yl]ethyl}butylamide]		> 25 µM	
O=C(NCCc1csc(-c2ccc(F)c(C34CC5CC(CC(C5)C3)C4)c2)n1)c1ccccc1 [Compound 1f, N-{2-[2-(3-(1-Tricyclo[3.3.1.1^3,7]decyl)-4-fluorophenyl)thiazol-4-yl]ethyl}benzamide]		> 20 µM	
O=C(NCCc1csc(-c2ccc(F)c(C34CC5CC(CC(C5)C3)C4)c2)n1)c1ccc(F)cc1 [Compound 1g, N-{2-[2-(3-(1-Tricyclo[3.3.1.1^3,7]decyl)-4-fluorophenyl)thiazol-4-yl]ethyl}-4-fluorobenzamide]		> 20 µM	
Cc1ccoc1C(=O)NCCc1csc(-c2ccc(F)c(C34CC5CC(CC(C5)C3)C4)c2)n1 [Compound 1h, N-{2-[2-(3-(1-Tricyclo[3.3.1.1^3,7]decyl)-4-fluorophenyl)thiazol-4-yl]ethyl}-3-methylfuran-2-ylcarboxamide]		> 20 µM	
O=C(NCCc1csc(-c2ccc(F)c(C34CC5CC(CC(C5)C3)C4)c2)n1)N1CCCC1 [Compound 1i, N-(2-(2-(3-(1-Tricyclo[3.3.1.1^3,7]decyl)-4-fluorophenyl)thiazol-4-yl)ethyl)pyrrolidin-1-yl-carboxamide]		> 20 µM	
CN(C)CCc1csc(-c2ccc(C34CC5CC(CC(C5)C3)C4)cc2)n1 [Compound 2c, 2-{2-[4-(1-Tricyclo[3.3.1.1^3,7]decyl)phenyl]thiazol-4-yl}-N,N-dimethylethan-1-amine]		1.27 ± 0.07 µM	IC90 ([1]; Trypanosoma brucei): 1.6 ± 0.22 µM
CC(=O)NCCc1csc(-c2ccc(C34CC5CC(CC(C5)C3)C4)cc2)n1 [Compound 2d, N-{2-[2-(4-(1-Tricyclo[3.3.1.1^3,7]decyl)phenyl)thiazol-4-yl]ethyl}acetamide]		> 20 µM	
[N-]=[N+]=NCCc1csc(-c2ccc(C34CC5CC(CC(C5)C3)C4)cc2)n1 [Compound 2h, 2-[4-(1-Tricyclo[3.3.1.1^3,7]decyl)phenyl]-4-(2-azidoethyl)thiazole]		> 20 µM	
CC1(C)[C@@H]2CC[C@]1(CS(=O)(=O)NCCc1csc(-c3ccccc3)n1)C(=O)C2 [Compound 4b, 1-((1R,4R)-7,7-Dimethyl-2-oxobicyclo[2.2.1]hept-1-yl)-N-(2-(2-phenylthiazol-4-yl)ethyl)methanesulfonamide]		20.6 ± 0.7 µM	IC90 ([1]; Trypanosoma brucei): 31.1 ± 0.3 µM
